Assay results from article PMC7144209, “Design, synthesis and anticancer activity of naphthoquinone derivatives” (Journal of Enzyme Inhibition and Medicinal Chemistry, 2020).

Key:
[1] = test system: SMMC-7721; assay: MTT cell viability assay, SMMC-7721 cells; assay type: cell-based; settings: Homo sapiens, 48 h, n = 3
Description: (§1) MGC-803, SGC-7901, U87 and SMMC-7721 cell lines were cultured in DMEM supplemented with 10% foetal bovine serum, 100 IU/mL penicillin/streptomycin. The cells were incubated in an atmosphere containing 5% CO2 at 37 °C.
(§2) MGC-803, SGC-7901, U87 and SMMC-7721 cells were plated in 96-well plate at 7000 per well. Cells were incubated with the different concentrations of the compounds for 48 h. Subsequently, MTT (0.5 mg/mL) were used to test the cell viability, then 150 μL DMSO was added to each well after cells were incubated for 4 h and the absorbance was measured at 492 nm.

[2] = test system: MGC-803; assay: MTT cell viability assay, MGC-803 cells; assay type: cell-based; settings: Homo sapiens, MGC-803, 48 h, n = 3
Description: as §1, §2

[3] = test system: U87; assay: MTT cell viability assay, U87 cells; assay type: cell-based; settings: Homo sapiens, U-87 MG, 48 h, n = 3
Description: as §1, §2

[4] = test system: L02; assay: MTT cell viability assay, L02 cells; assay type: cell-based; settings: Homo sapiens, n = 3
[5] = test system: SGC-7901; assay: MTT cell viability assay, SGC-7901 cells; assay type: cell-based, human; settings: Homo sapiens, SGC-7901, 48 h, n = 3
Description: as §1, §2

## CC(C)=CCC(OC(=O)CCC(=O)Nc1cccc2ccccc12)C1=CC(=O)c2c(O)ccc(O)c2C1=O (stereo not drawn) [Compound 16, 1-(5,8-dihydroxy-1,4-dioxo-1,4-dihydronaphthalen-2-yl)-4-methylpent-3-en-1-yl-4-(naphthalen-1-ylamino)-4-oxobutanoate]
[1]
  IC50: 24.3 ± 1.7 µM
[2]
  IC50: 5.9 ± 2.6 µM
[3]
  IC50: 5.41 ± 0.67 µM
[4]
  IC50: 13 ± 2.4 µM
other
  melting point: 127 °C
[5]
  IC50: 5.6 ± 2.6 µM

## COc1cc(/C=C/CC(=O)OC(CC=C(C)C)C2=CC(=O)c3c(O)ccc(O)c3C2=O)cc(OC)c1OC (stereo not drawn) [Compound 5, 1-(5,8-dihydroxy-1,4-dioxo-1,4-dihydronaphthalen-2-yl)-4-methylpent-3-en-1-yl (E)-4-(3,4,5-trimethoxyphenyl)but-3-enoate]
[1]
  IC50: > 100 µM
[2]
  IC50: > 100 µM
[3]
  IC50: > 100 µM
[4]
  IC50: > 100 µM
other
  melting point: 54 °C
[5]
  IC50: > 100 µM

## CC(C)=CCC(OC(=O)C=Cc1ccccc1)C1=CC(=O)c2c(O)ccc(O)c2C1=O (stereo not drawn) [Compound 4, 1-(5,8-dihydroxy-1,4-dioxo-1,4-dihydronaphthalen-2-yl)-4-methylpent-3-en-1-yl cinnamate]
[2]
  IC50: > 100 µM
[3]
  IC50: 65.7 ± 2.7 µM
[4]
  IC50: > 100 µM
other
  melting point: 85 °C
[5]
  IC50: 75.1 ± 0.4 µM

## CC(C)=CCC(OC(=O)CCC(=O)NCCc1ccccc1F)C1=CC(=O)c2c(O)ccc(O)c2C1=O (stereo not drawn) [Compound 21, 1-(5,8-dihydroxy-1,4-dioxo-1,4-dihydronaphthalen-2-yl)-4-methylpent-3-en-1-yl 4-((2-fluorophenethyl)amino)-4-oxobutanoate]
[1]
  IC50: 15.4 ± 0.4 µM
[2]
  IC50: 6.9 ± 3.9 µM
[3]
  IC50: 6.1 ± 0.6 µM
[4]
  IC50: 16 ± 2.2 µM
other
  melting point: 91 °C
[5]
  IC50: 14.8 ± 1.6 µM

## CC(C)=CCC(OC(=O)CCC(=O)NCCc1ccccc1Cl)C1=CC(=O)c2c(O)ccc(O)c2C1=O (stereo not drawn) [Compound 18, 1-(5,8-dihydroxy-1,4-dioxo-1,4-dihydronaphthalen-2-yl)-4-methylpent-3-en-1-yl-4-((2-chlorophenethyl)amino)-4-oxobutanoate]
[1]
  IC50: 17.9 ± 1.6 µM
[2]
  IC50: 6.6 ± 4.7 µM
[3]
  IC50: 7.7 ± 4.4 µM
[4]
  IC50: 20.2 ± 2 µM
other
  melting point: 97.8 °C
[5]
  IC50: 23.7 ± 0.5 µM

## CC(C)=CCC(O)C1=CC(=O)c2c(OCc3ccccc3)ccc(OCc3ccccc3)c2C1=O (stereo not drawn) [Compound 2, 5,8-bis(benzyloxy)-2-(1-hydroxy-4-methylpent-3-en-1-yl)naphthalene-1,4-dione]
[1]
  IC50: > 100 µM
[2]
  IC50: > 100 µM
[3]
  IC50: > 100 µM
[4]
  IC50: > 100 µM
other
  melting point: 60 °C
[5]
  IC50: > 100 µM

## COc1ccccc1NC(=O)CCC(=O)OC(CC=C(C)C)C1=CC(=O)c2c(O)ccc(O)c2C1=O (stereo not drawn) [Compound 15, 1-(5,8-dihydroxy-1,4-dioxo-1,4-dihydronaphthalen-2-yl)-4-methylpent-3-en-1-yl-4-((2-methoxyphenyl)amino)-4-oxobutanoate]
[1]
  IC50: > 100 µM
[2]
  IC50: > 100 µM
[3]
  IC50: > 100 µM
[4]
  IC50: > 100 µM
other
  melting point: 113 °C
[5]
  IC50: > 100 µM

## CC(C)=CCC(OC(=O)CCC(=O)Nc1ccc(Br)cc1)C1=CC(=O)c2c(O)ccc(O)c2C1=O (stereo not drawn) [Compound 14, 1-(5,8-dihydroxy-1,4-dioxo-1,4-dihydronaphthalen-2-yl)-4-methylpent-3-en-1-yl-4-((4-bromophenyl)amino)-4-oxobutanoate]
[1]
  IC50: 14.8 ± 0.1 µM
[2]
  IC50: 10.2 ± 1.3 µM
[3]
  IC50: > 100 µM
[4]
  IC50: 16.2 ± 1.7 µM
other
  melting point: 105 °C
[5]
  IC50: 10.7 ± 1.8 µM

## COc1cccc2c1C(=O)c1c(O)c3c(c(O)c1C2=O)C[C@@](O)(C(=O)CO)C[C@@H]3O[C@H]1C[C@H](N)[C@H](O)[C@H](C)O1 [ADM, Adriamycin, reference compound]
[1]
  IC50: 0.46 ± 0.63 µM
[2]
  IC50: 0.48 ± 0.06 µM
[3]
  IC50: 0.57 ± 0.32 µM
[4]
  IC50: > 100 µM
[5]
  IC50: 0.72 ± 0.12 µM

## CC(C)=CCC(OC(=O)CCC(=O)NCCc1ccc(Br)cc1)C1=CC(=O)c2c(O)ccc(O)c2C1=O (stereo not drawn) [Compound 19, 1-(5,8-dihydroxy-1,4-dioxo-1,4-dihydronaphthalen-2-yl)-4-methylpent-3-en-1-yl-4-((4-bromophenethyl)amino)-4-oxobutanoate]
[1]
  IC50: 17.9 ± 1 µM
[2]
  IC50: 5.7 ± 2.4 µM
[3]
  IC50: 9.1 ± 2.5 µM
[4]
  IC50: 8.5 ± 0.4 µM
other
  melting point: 134 °C
[5]
  IC50: 7.6 ± 2.3 µM

## CCCCCCN(CCCCCC)C(=O)CCC(=O)OC(CC=C(C)C)C1=CC(=O)c2c(O)ccc(O)c2C1=O (stereo not drawn) [Compound 23, 1-(5,8-dihydroxy-1,4-dioxo-1,4-dihydronaphthalen-2-yl)-4-methylpent-3-en-1-yl 4-(dihexylamino)-4-oxobutanoate]
[1]
  IC50: > 100 µM
[2]
  IC50: > 100 µM
[3]
  IC50: > 100 µM
[4]
  IC50: > 100 µM
[5]
  IC50: > 100 µM

## COc1ccc(OC)c2c1C(=O)C=C(C(O)CC=C(C)C)C2=O (stereo not drawn) [Compound 1, 2-(1-hydroxy-4-methylpent-3-en-1-yl)-5,8-dimethoxynaphthalene-1,4-dione]
[1]
  IC50: > 100 µM
[2]
  IC50: > 100 µM
[3]
  IC50: > 100 µM
[4]
  IC50: > 100 µM
other
  melting point: 94.3 °C
[5]
  IC50: > 100 µM

## CC(C)=CCC(OC(=O)COc1ccc(Cl)cc1)C1=CC(=O)c2c(O)ccc(O)c2C1=O (stereo not drawn) [Compound 6, 1-(5,8-dihydroxy-1,4-dioxo-1,4-dihydronaphthalen-2-yl)-4-methylpent-3-en-1-yl-2-(4-chlorophenoxy)acetate]
[1]
  IC50: > 100 µM
[2]
  IC50: > 100 µM
[3]
  IC50: > 100 µM
[4]
  IC50: > 100 µM
other
  melting point: 102 °C
[5]
  IC50: > 100 µM

## CC(C)=CCC(OC(=O)CCC(=O)N1CCCCC1)C1=CC(=O)c2c(O)ccc(O)c2C1=O (stereo not drawn) [Compound 7, 1-(5,8-dihydroxy-1,4-dioxo-1,4-dihydronaphthalen-2-yl)-4-methylpent-3-en-1-yl-4-oxo-4-(piperidin-1-yl)butanoate]
[1]
  IC50: 14.4 ± 1.5 µM
[2]
  IC50: 9.7 ± 2.3 µM
[3]
  IC50: 9.68 ± 2.3 µM
[4]
  IC50: 36.8 ± 4.1 µM
other
  melting point: 120 °C
[5]
  IC50: 33.6 ± 2.1 µM

## COc1ccc(NC(=O)CCC(=O)OC(CC=C(C)C)C2=CC(=O)c3c(O)ccc(O)c3C2=O)cc1 (stereo not drawn) [Compound 10, 1-(5,8-dihydroxy-1,4-dioxo-1,4-dihydronaphthalen-2-yl)-4-methylpent-3-en-1-yl-4-((4-methoxyphenyl)amino)-4-oxobutanoate]
[1]
  IC50: 12.4 ± 2.6 µM
[2]
  IC50: 7.9 ± 1.8 µM
[3]
  IC50: 12.3 ± 2.8 µM
[4]
  IC50: 11.9 ± 0.6 µM
other
  melting point: 115 °C
[5]
  IC50: 11.1 ± 1.2 µM

## CC(C)=CCC(OC(=O)/C=C\C(=O)N1CCOCC1)C1=CC(=O)c2c(O)ccc(O)c2C1=O (stereo not drawn) [Compound 24, 1-(5,8-dihydroxy-1,4-dioxo-1,4-dihydronaphthalen-2-yl)-4-methylpent-3-en-1-yl (Z)-4-morpholino-4-oxobut-2-enoate]
[1]
  IC50: 50.1 ± 0.8 µM
[2]
  IC50: 40.8 ± 1.9 µM
[3]
  IC50: 20.6 ± 0.6 µM
[4]
  IC50: > 100 µM
other
  melting point: 104 °C
[5]
  IC50: 38.5 ± 0.7 µM

## CCN(CC)C(=O)CCC(=O)OC(CC=C(C)C)C1=CC(=O)c2c(O)ccc(O)c2C1=O (stereo not drawn) [Compound 22, 1-(5,8-dihydroxy-1,4-dioxo-1,4-dihydronaphthalen-2-yl)-4-methylpent-3-en-1-yl 4-(diethylamino)-4-oxobutanoate]
[1]
  IC50: 46.5 ± 1.7 µM
[2]
  IC50: 9.4 ± 0.4 µM
[3]
  IC50: 40.7 ± 4.7 µM
[4]
  IC50: > 50 µM
other
  melting point: 77 °C
[5]
  IC50: 19.8 ± 1.8 µM

## CC(C)=CCC(OC(=O)CCC(=O)N1CCOCC1)C1=CC(=O)c2c(O)ccc(O)c2C1=O (stereo not drawn) [Compound 8, 1-(5,8-dihydroxy-1,4-dioxo-1,4-dihydronaphthalen-2-yl)-4-methylpent-3-en-1-yl 4-morpholino-4-oxobutanoate]
[1]
  IC50: 16.7 ± 1.8 µM
[2]
  IC50: 10.4 ± 0.7 µM
[3]
  IC50: 10 ± 1.6 µM
[4]
  IC50: > 50 µM
other
  melting point: 105 °C
[5]
  IC50: 20 ± 3.9 µM
